# Data published in paper PMC9481636, “Mechanism of action of non-camptothecin inhibitor Genz-644282 in topoisomerase I inhibition” (Communications Biology, 2022).
# Substitutions are numbered along the chain they refer to.
# Experiments:
# Format in all cases: biochemical
# Topoisomerase I (TOP1) [1] = target: T1, Topoisomerase I (TOP1) (Homo sapiens, UniProt P11387, N722S); assay: nicked-DNA accumulation assay with purified recombinant TOP1 N722S, […] Genz
# T1 construct: 6×His-tagged TOP1 (baculovirus, High Five cells)
# T1 sequence (P11387 2-765 N722S): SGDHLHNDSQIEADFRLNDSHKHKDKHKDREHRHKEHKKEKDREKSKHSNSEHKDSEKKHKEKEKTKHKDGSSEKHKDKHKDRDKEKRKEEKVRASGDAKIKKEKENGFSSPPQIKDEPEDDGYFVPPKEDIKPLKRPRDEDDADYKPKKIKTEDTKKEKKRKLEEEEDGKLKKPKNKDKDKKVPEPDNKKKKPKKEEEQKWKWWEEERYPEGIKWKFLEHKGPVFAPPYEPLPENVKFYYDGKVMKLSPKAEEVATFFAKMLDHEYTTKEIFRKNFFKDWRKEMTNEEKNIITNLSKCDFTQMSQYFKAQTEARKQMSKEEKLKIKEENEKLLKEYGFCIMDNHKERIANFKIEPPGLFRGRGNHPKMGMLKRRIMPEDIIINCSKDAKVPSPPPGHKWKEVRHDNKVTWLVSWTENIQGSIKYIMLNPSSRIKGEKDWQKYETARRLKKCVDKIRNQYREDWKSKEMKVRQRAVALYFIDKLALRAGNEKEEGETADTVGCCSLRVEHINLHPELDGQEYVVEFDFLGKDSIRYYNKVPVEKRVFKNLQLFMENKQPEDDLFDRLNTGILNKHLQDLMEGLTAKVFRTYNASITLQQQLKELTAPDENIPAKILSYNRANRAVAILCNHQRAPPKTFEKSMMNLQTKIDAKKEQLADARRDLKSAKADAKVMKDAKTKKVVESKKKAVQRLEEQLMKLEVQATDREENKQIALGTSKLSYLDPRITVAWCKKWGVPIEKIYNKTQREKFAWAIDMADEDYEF
# Topoisomerase I (TOP1) [2] = target: T2, Topoisomerase I (TOP1) (Homo sapiens, UniProt P11387, N722A); assay: nicked-DNA accumulation/relaxation assay with purified recombinant TOP1 N722A
# T2 construct: 6×His-tagged TOP1 (baculovirus, High Five cells)
# T2 sequence (P11387 2-765 N722A): T1 sequence (P11387 2-765 N722S) with S721A
# Topoisomerase I (TOP1) [3] = target: T3, Topoisomerase I (TOP1) (Homo sapiens, UniProt P11387); assay: nicked-DNA accumulation/relaxation assay with purified recombinant wild-type TOP1
# T3 construct: 6×His-tagged TOP1 (baculovirus, High Five cells)
# T3 sequence (P11387 2-765): T1 sequence (P11387 2-765 N722S) with S721N
compound,measurement,setting,value
"CNCCn1c(=O)c2cc(OC)c(OC)cc2c2cnc3cc4c(cc3c21)OCO4 [Genz, 8,9-dimethoxy-5-(2-N-methylaminoethyl)-2,3-methylenedioxy-5H-dibenzo[c,h][1,6]naphthyridin-6-one]","nicked-DNA accumulation assay with purified recombinant TOP1 N722S, 10 μM Genz",Topoisomerase I (TOP1) [1],The enhanced accumulation of nicked DNA appeared only in the N722S mutant after treatment with Genz
same,nicked-DNA accumulation/relaxation assay with purified recombinant TOP1 N722A,Topoisomerase I (TOP1) [2],accumulation of nicked DNA on N722A and N722S proteins after treatment with Genz was higher than that on the wild type
same,nicked-DNA accumulation/relaxation assay with purified recombinant wild-type TOP,Topoisomerase I (TOP1) [3],slight accumulation of nicked DNA was also observed for the wild type
